The source made the active and inactive calls. No cut-off for these calls is given here.
Columns and labels:
Plasmodium falciparum [1] = test: microbe, parasite or virus in culture; settings: RCS
Description: Antimalarial activity against chloroquine-resistant, mefloquine-sensitive Plasmodium falciparum RCS

Plasmodium falciparum [2] = test: microbe, parasite or virus in culture; settings: D6
Description: Antimalarial activity against chloroquine and pyrimethamine-sensitive Plasmodium falciparum D6

[3] = Cytotoxicity against human NCI60 cells; type: functional
[4] = Metabolic stability in human liver microsomes assessed as half life at 10 uM; type: ADME, Microsome
[5] = Metabolic stability in mouse liver microsomes assessed as half life at 10 uM; type: ADME, Microsome
Plasmodium falciparum [6] = test: microbe, parasite or virus in culture; settings: TM91C235
Description: Antimalarial activity against mefloquine, chloroquine and quinine-resistant Plasmodium falciparum TM91C235

Plasmodium falciparum [7] = test: microbe, parasite or virus in culture; settings: W2
Description: Antimalarial activity against chloroquine and pyrimethamine-resistant Plasmodium falciparum W2

A498 = test: Antiproliferative activity against human A498 cells; type: functional
Plasmodium berghei [8] = test: Antimalarial activity as parasite-free survivors at day 31 of Plasmodium berghei KBG173 infected CD1 mice (Mus musculus) at 320 mg/kg/day peroral dose; type: functional, organism-based
Plasmodium berghei [9] = test: Antimalarial activity as parasite-free survivors at day 31 of Plasmodium berghei KBG173 infected CD1 mice (Mus musculus) at 20 mg/kg/day peroral dose; type: functional, organism-based
Plasmodium berghei [10] = test: Antimalarial activity as survival time in Plasmodium berghei KBG173 infected CD1 mice (Mus musculus) at 320 mg/kg/day peroral dose; type: functional; settings: route oral
Plasmodium berghei [11] = test: Antimalarial activity as survival time against Plasmodium berghei KBG173 infected CD1 mice (Mus musculus) at 80 mg/kg/day peroral dose 3 - 5 days post infection; type: functional; settings: route oral
Plasmodium berghei [12] = test: Antimalarial activity as survival time in Plasmodium berghei KBG173 infected CD1 mice (Mus musculus) at 20 mg/kg/day peroral dose; type: functional; settings: route oral
Plasmodium falciparum [13] = test: Relative activity against Plasmodium falciparum TM91C235 as fold-lower IC90/IC50 ratio relative to mefloquine

Structure (SMILES)	IC90 (Plasmodium falciparum [1]) [nM]	IC90 (Plasmodium falciparum [2]) [nM]	GI50 [3] [nM]	LC50 [3] [nM]	TGI [3] [nM]	half-life at 10 µM [4] [h]	half-life at 10 µM [5] [h]	IC50 (Plasmodium falciparum [1]) [nM]	IC50 (Plasmodium falciparum [6]) [nM]	IC90 (Plasmodium falciparum [6]) [nM]	IC50 (Plasmodium falciparum [2]) [nM]	IC50 (Plasmodium falciparum [7]) [nM]	IC90 (Plasmodium falciparum [7]) [nM]	Survival (Plasmodium berghei [10]) [days]	Survival (Plasmodium berghei [11]) [days]	Survival (Plasmodium berghei [12]) [days]	further results
CCN(CC)CCCC(C)Nc1ccnc2cc(Cl)ccc12 (centres undefined) [CHLOROQUINE]	397	17.6	–	–	–	–	–	–	–	–	–	–	–	–	–	–	–
CNC(=O)CC[C@@H](C)[C@H]1CC[C@H]2[C@@H]3[C@H](OC(C)=O)C[C@@H]4CC5(CC[C@]4(C)[C@H]3C[C@H](OC(C)=O)[C@]12C)OOC(C)(C)OO5	22.3	78.3	4470	47900	18200	> 1	> 1	11.6	31.3	74.8	46.9	18.1	20.7	–	–	–	–
COC(=O)CNC(=O)CC[C@@H](C)[C@H]1CC[C@H]2[C@@H]3[C@H](OC(C)=O)C[C@@H]4CC5(CC[C@]4(C)[C@H]3C[C@H](OC(C)=O)[C@]12C)OOC(C)(C)OO5	–	–	8510	77600	33900	1.17	0.533	–	–	–	14.3	5.98	–	–	–	–	–
C[C@H](CCC(N)=O)[C@H]1CC[C@H]2[C@@H]3[C@H](O)C[C@@H]4CC5(CC[C@]4(C)[C@H]3C[C@H](O)[C@]12C)OOC(C)(C)OO5	168	347	980	11200	3800	> 1	> 1	38.7	228	498	215	153	234	–	–	–	GI50 (A498): 92 nM; TGI (A498): 710 nM; CC50 (A498; read-out: LC50 (the source's name)): 11500 nM
CC(=O)O[C@H]1C[C@H]2[C@@H]([C@H](OC(C)=O)C[C@@H]3CC4(CC[C@@]32C)OOC(C)(C)OO4)[C@@H]2CC[C@H]([C@H](C)CCC(=O)O)[C@@]12C	–	96.3	15500	75900	37200	> 1	> 1	–	60.4	231	46.5	36	94.7	17	15	10	Activity (Plasmodium berghei [8]): inactive; Activity (Plasmodium berghei [9]): inactive
CC(=O)O[C@H]1C[C@H]2[C@@H]([C@H](OC(C)=O)C[C@@H]3CC4(CC[C@@]32C)OOC(C)(C)OO4)[C@@H]2CC[C@H]([C@H](C)CCC(=O)Nc3ccccc3)[C@@]12C	4.45	20.8	–	–	–	0.317	0.267	1.89	15.8	20.9	6.97	5.02	14.3	23	25	23	fold-lower IC90/IC50 ratio vs mefloquine (Plasmodium falciparum [13]): 3
COC(=O)CC[C@@H](C)[C@H]1CC[C@H]2[C@@H]3[C@H](OC(C)=O)C[C@@H]4CC5(CC[C@]4(C)[C@H]3C[C@H](OC(C)=O)[C@]12C)OOC(C)(C)OO5	–	26.7	–	–	–	–	–	–	26	57.3	15	11.7	20.7	18	16	13	Activity (Plasmodium berghei [8]): inactive; Activity (Plasmodium berghei [9]): inactive

Source: ChEMBL document CHEMBL1157528, “Mixed tetraoxanes containing the acetone subunit as antimalarials” (Bioorg Med Chem, 2008)
